From US20240269154A1, “CANNABIDIOL FOR USE IN THE TREATMENT OF PAIN RESULTING FROM AN INDOLEAMINE 2,3-DIOXYGENASE-1 (IDO1) RELATED DISEASE” (Assistance Publique - Hopitaux de Paris, priority 2021, published 2024)
Entries after “also recorded” stand apart in the source; their conditions may differ.

Test system: patients suffering from indolent systemic mastocytosis (ISM) or mast cell activation syndrome (MCAS) or having hypertryptasemia
Experiment: Numeric rating scale (NRS) pain score in 15 patients treated with CBD capsules
Type: in vivo, human
Settings: for reduction of pain / average pain score (NRS): 15 patients; for reduction of pain: NRS; for average pain score (NRS): D0 average about 7.2
Experimental: Fifteen patients suffering from indolent systemic mastocytosis (ISM) or mast cell activation syndrome (MCAS) or having hypertryptasemia with no positive result from classic treatments were treated with a daily dose from 15 to 400 mg of cannabidiol (CBD) by capsule.
The pain was measured using numeric rating scale (NRS) pain score, between 0 (no pain) and 10 (worst pain imaginable).

[1] = after one month of treatment (M1)
[2] = after three months of treatment (M3)

Q: What does the source list for `C=C(C)[C@@H]1CCC(C)=C[C@H]1c1c(O)cc(CCCCC)cc1O` [CBD, cannabidiol]?
A: reduction of pain (M1 versus D0): about 2 points; reduction of pain (M3 versus D0): about 3 points; average pain score (NRS) [1]: 5.1; average pain score (NRS) [2]: 3.8; relief of pain observed [1]: 13 of 15; relief of pain observed [2]: 14 of 15; pain treatment withdrawal (individual patient, other pain treatment stopped under CBD): stop stelara; also recorded: stop NSAID; also recorded: stop nefopam; also recorded: stop memantine,; also recorded: stop opioids; also recorded: stop methadone,; also recorded: stop methadone; also recorded: stop ketamine; also recorded: stop amitriptyline
